Results: PubChem BioAssay (NCI)
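The compound was tested at five concentrations on cells cultured in 96-well plates, with a 48-hour exposure period. The concentration for 50% growth inhibition is given as GI50. At the TGI there is no net growth.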

Columns and labels:
Test in all cases: NCI anticancer screen, dose series, 48 h
[1] = test system: HCC-2998 colon
[2] = test system: SF-539 CNS
[3] = test system: HL-60(TB) leukemia
[4] = test system: NCI-H226 lung
[5] = test system: HOP-92 NSCLC
[6] = test system: U251 CNS
[7] = test system: HCT-15 colon
[8] = test system: OVCAR-3 ovarian
[9] = test system: A549 NSCLC
[10] = test system: OVCAR-5 ovarian
[11] = test system: NCI/ADR-RES ovarian
[12] = test system: UACC-257 melanoma
[13] = test system: IGROV1 ovarian
[14] = test system: DU-145 prostate
[15] = test system: SW-620 colon
[16] = test system: UO-31 renal
[17] = test system: SK-OV-3 ovarian
[18] = test system: SK-MEL-2 melanoma
[19] = test system: MDA-MB-435
[20] = test system: OVCAR-8 ovarian
[21] = test system: SNB-19 CNS
[22] = test system: NCI-H460 lung
[23] = test system: RPMI-8226 leukemia
[24] = test system: PC-3 prostate
[25] = test system: SN12C renal
[26] = test system: MALME-3M melanoma
[27] = test system: MOLT-4 leukemia
[28] = test system: RXF 393 renal
[29] = test system: UACC-62 melanoma
[30] = test system: SR leukemia
[31] = test system: ACHN renal
[32] = test system: BT-549 breast
[33] = test system: T-47D breast
[34] = test system: NCI-H23 lung
[35] = test system: HOP-62 NSCLC
[36] = test system: A498 renal
[37] = test system: M14 melanoma
[38] = test system: HT29 colon
[39] = test system: LOX IMVI melanoma
[40] = test system: HCT-116 colon
[41] = test system: SK-MEL-28 melanoma
[42] = test system: SF-268 CNS
[43] = test system: K-562 leukemia
[44] = test system: CAKI-1 renal
[45] = test system: COLO 205 colon
[46] = test system: KM12 colon
[47] = test system: MDA-MB-231 breast
[48] = test system: CCRF-CEM leukemia
[49] = test system: EKVX NSCLC
[50] = test system: TK-10 renal
[51] = test system: 786-0 renal
[52] = test system: SNB-75 CNS
[53] = test system: SF-295 CNS
[54] = test system: SK-MEL-5 melanoma
[55] = test system: OVCAR-4 ovarian
[56] = test system: NCI-H522 lung

CN(C)CCOc1cccc(NC2=C(Cl)C(=O)C(Nc3cccc(OCCN(C)C)c3)=C(Cl)C2=O)c1
GI50 [1]: 1440 nM
TGI [1]: 3 µM
GI50 [2]: 1620 nM
TGI [2]: 2980 nM
GI50 [3]: 751 nM
TGI [3]: 2610 nM
GI50 [4]: 1810 nM
TGI [4]: 3.93 µM
GI50 [5]: 184 nM
TGI [5]: 408 nM
GI50 [6]: 1470 nM
TGI [6]: 2930 nM
GI50 [7]: 350 nM
TGI [7]: 1400 nM
GI50 [8]: 180 nM
TGI [8]: 334 nM
GI50 [9]: 2190 nM
TGI [9]: 3.98 µM
GI50 [10]: 1840 nM
TGI [10]: 3.4 µM
GI50 [11]: 2440 nM
TGI [11]: > 26.4 µM
GI50 [12]: 765 nM
TGI [12]: 2030 nM
GI50 [13]: 235 nM
TGI [13]: 663 nM
GI50 [14]: 366 nM
TGI [14]: 1270 nM
GI50 [15]: 207 nM
TGI [15]: 438 nM
GI50 [16]: 498 nM
TGI [16]: 979 nM
GI50 [17]: 11.3 µM
TGI [17]: 23.4 µM
GI50 [18]: 1110 nM
TGI [18]: 2610 nM
GI50 [19]: 666 nM
TGI [19]: 1900 nM
GI50 [20]: 1130 nM
TGI [20]: 2910 nM
GI50 [21]: 1720 nM
TGI [21]: 3.31 µM
GI50 [22]: 1570 nM
TGI [22]: 3.27 µM
GI50 [23]: 306 nM
TGI [23]: 1030 nM
GI50 [24]: 1520 nM
TGI [24]: 3.25 µM
GI50 [25]: 427 nM
TGI [25]: 886 nM
GI50 [26]: 275 nM
TGI [26]: 827 nM
GI50 [27]: 255 nM
TGI [27]: 844 nM
GI50 [28]: 358 nM
TGI [28]: 1210 nM
GI50 [29]: 1200 nM
TGI [29]: 2570 nM
GI50 [30]: 218 nM
TGI [30]: 783 nM
GI50 [31]: 219 nM
TGI [31]: 465 nM
GI50 [32]: 1720 nM
TGI [32]: 3.12 µM
GI50 [33]: 189 nM
TGI [33]: 453 nM
GI50 [34]: 323 nM
TGI [34]: 1350 nM
GI50 [35]: 2100 nM
TGI [35]: 4.22 µM
GI50 [36]: 1640 nM
TGI [36]: 3.26 µM
GI50 [37]: 1140 nM
TGI [37]: 2530 nM
GI50 [38]: 258 nM
TGI [38]: 666 nM
GI50 [39]: 191 nM
TGI [39]: 407 nM
GI50 [40]: 180 nM
TGI [40]: 385 nM
GI50 [41]: 1030 nM
TGI [41]: 2490 nM
GI50 [42]: 1700 nM
TGI [42]: 3.48 µM
GI50 [43]: 162 nM
TGI [43]: 608 nM
GI50 [44]: 1440 nM
TGI [44]: 2810 nM
GI50 [45]: 258 nM
TGI [45]: 684 nM
GI50 [46]: 1330 nM
TGI [46]: 2920 nM
GI50 [47]: 540 nM
TGI [47]: 1170 nM
GI50 [48]: 256 nM
TGI [48]: 932 nM
GI50 [49]: 794 nM
TGI [49]: 2130 nM
GI50 [50]: 234 nM
TGI [50]: 513 nM
GI50 [51]: 490 nM
TGI [51]: 1120 nM
GI50 [52]: 1930 nM
TGI [52]: 4.87 µM
GI50 [53]: 2360 nM
TGI [53]: 5.92 µM
GI50 [54]: 792 nM
TGI [54]: 2040 nM
GI50 [55]: 170 nM
TGI [55]: 329 nM
GI50 [56]: 194 nM
TGI [56]: 460 nM
